Results taken from patent publication US20190002585A1, “CANCER TREATMENT METHODS AND COMPOSITIONS” (The Cleveland Clinic Foundation, priority 2017, published 2019).
Where a SMILES comes first, the peptide text is derived from it. The star is where a group is joined. Cbz = O=C(OCc1ccccc1)*; CH2F = FC*

Assays:
[1] = system: RNASEL KO A549 cells with knock-in of mutant RNase L (R667A); assay: Cell death assay, IncuCyte, RNase L knock-in; type: cell-based, human; conditions: 50 μM AZA for 72 hr
Experimental: (§1) Both WT and R667A RNase L have a FLAG epitope attached. Cells were lysed after 72 hr and proteins were analyzed by Western blot probed with anti-Flag M2 antibody (Sigma-Aldrich) (upper) and anti-β-actin antibody (Sigma-Aldrich) (lower). […] Dead cells and total cells were determined with an IncuCyte real-time imaging system using a dual-dye method. A minimum of three wells were treated with each experimental condition. The data are average±SD from three independent replicates. […] Three separate wells were treated with each experimental condition and a minimum of 4 image fields (>10,000 cells/well) were analyzed per well.
(§2) Cells (20,000 per well) were seeded in 24-well plates or 8,000 cells per well in 96-well plates and treated as stated in figure legends. The cells were incubated with 250 nM Sytox-Green dye (Thermo Fisher), a nucleic acid stain that is an indicator of dead cells and which is impermeant to live cells, and 250 nM of cell permeable dye Syto™ 60-Red (ThermoFisher), which allows quantification of the total number of cells present in each field, using an IncuCyte Live-Cell Imaging System and software (Essen Instruments 2015A) for 72 hours. Cell death was measured by counting the green objects per/well (dead cells, green) and then normalizing to the total number of cells per/well (red objects) at each time point using IncuCyte software.

[2] = system: RNASEL KO A549 cells with knock-in of WT RNase L; assay: Cell death assay, IncuCyte, RNase L knock-in; type: cell-based, human; conditions: 50 μM AZA for 72 hr
Experimental: as §1, §2

[3] = system: PC3 prostate cancer cells; assay: Cell death assay, IncuCyte real-time imaging; type: cell-based, human; conditions: FIG. 9
Experimental: (§3) Cell lines and viruses. Human A549 cells (ATCC® CCL-185™) validated by STR analysis were cultured in RPMI 1640 medium (Gibco) supplemented with 10% fetal bovine serum (FBS), 100U/ml penicillin and 100 μg/ml streptomycin. PC3, DU145 and C4-2 cells were grown in RPMI with 10% FBS. HAEC, BEAS 2B and BETA cells were grown in LHC-8 (Biofluids/Biosource, catalog #P141-500) supplemented with 0.1% epinehrin (Biofluids/Biosource, catalog #355-002), 3.3 mM retinoic acid (Biofluids/Biosource, catalog #348-001) and penicillin-streptomycin-fungizone (Invitogen, catalog #15240-062) and were a gift from Drs. Suzy Comhair and Serpil Erzurum (Cleveland Clinic).
as §2

[4] = system: C4-2 prostate cancer cells; assay: Cell death assay, IncuCyte real-time imaging; type: cell-based, human; conditions: FIG. 8
Experimental: as §3, §2

[5] = system: DU145 prostate cancer cells; assay: Cell death assay, IncuCyte real-time imaging; type: cell-based, human; conditions: FIG. 8
Experimental: as §3, §2

PDE12 KO A549 cells = assay: Cell survival, IncuCyte; type: cell-based, human; conditions: 50 uM AZA (FIG. 11)
Experimental: (§4) The A549 RNase L KO cells were described previously. Additional knockout cells were generated using the CRISPR Cas9 system. The sgRNA sequences were chosen from a published database. The guide RNA sequences were synthesized as DNA oligonucleotides by IDT. Primers were annealed, phosphorylated and ligated into vector LentiCRISPR v2 (Addgene 52961) that was prepared by digestion with BsmBI. The resulting plasmids were transformed into Stbl3 chemically competent cells (Invitrogen) and grown on a bacterial culture plate at 37° C. Colonies were screened by PCR using the U6 primer and gene specific reverse primer to generate approximately 300 bp product. Positive clones were cultured and plasmid DNA was prepared and sequence verified using the U6 primer. The AKAP7 sgRNA sequences are: sgAKAP7-2 FW CACCGTGAGCGACTGGCCAAAGCAA (SEQ ID NO:1) and sgAKAP7-2 REV AAACTTGCTTTGGCCAGTCGCTCA C (SEQ ID NO:2). The PDE12 sgRNA sequences are: sgPDE12_10.FW CACCGGGATGCCTGGCAAGACGGCG (SEQ ID NO:3) and sgPDE12_10.REV AAACCGCCGTCTTGCCAGGCATCCC (SEQ ID NO:4). Cell cloning was done by limited dilution. The CRISPR vector, pLenti-sgRL-6, was used to knockout RNase L in PC3 cells as we described for RNase L KO A549 cells. […]
as §2

[6] = system: AKAP7-PDE12 DKO A549 cells; assay: Cell survival, IncuCyte; type: cell-based, human; conditions: 50 uM AZA (FIG. 11)
Experimental: as §4, §2

AKAP7 KO A549 cells = assay: Cell survival, IncuCyte; type: cell-based, human; conditions: 50 uM AZA (FIG. 11)
Experimental: as §4, §2

WT A549 cells [7] = assay: Cell death assay, IncuCyte real-time imaging, dual dye; type: cell-based
Experimental: as §3, §2

RNase L KO A549 cells [8] = assay: as above; type: cell-based, human; parameters: AZA sensitivity: dose or concentration left out as unconfirmed
Experimental: as §3
The A549 RNase L KO cells were described previously. Additional knockout cells were generated using the CRISPR Cas9 system. The sgRNA sequences were chosen from a published database. The guide RNA sequences were synthesized as DNA oligonucleotides by IDT. Primers were annealed, phosphorylated and ligated into vector LentiCRISPR v2 (Addgene 52961) that was prepared by digestion with BsmBI. The resulting plasmids were transformed into Stbl3 chemically competent cells (Invitrogen) and grown on a bacterial culture plate at 37° C. Colonies were screened by PCR using the U6 primer and gene specific reverse primer to generate approximately 300 bp product. Positive clones were cultured and plasmid DNA was prepared and sequence verified using the U6 primer. The AKAP7 sgRNA sequences are: sgAKAP7-2 FW CACCGTGAGCGACTGGCCAAAGCAA (SEQ ID NO:1) and sgAKAP7-2 REV AAACTTGCTTTGGCCAGTCGCTCA C (SEQ ID NO:2). The PDE12 sgRNA sequences are: sgPDE12_10.FW CACCGGGATGCCTGGCAAGACGGCG (SEQ ID NO:3) and sgPDE12_10.REV AAACCGCCGTCTTGCCAGGCATCCC (SEQ ID NO:4). Cell cloning was done by limited dilution. The CRISPR vector, pLenti-sgRL-6, was used to knockout RNase L in PC3 cells as we described for RNase L KO A549 cells. To obtain the PDE12/AKAP7 DKO cells, a PDE12 knockout A549 cell line was infected with pseudo lentiviruses expression sgRNA for AKAP7 followed by single cell cloning. The PDE12/RNase L DKO cells were obtained by infecting the RNase L KO A549 cells with the pseudo lentivirus expressing sgRNA for […] followed by single cell cloning. Resulting clones were screened for knock-out of expression using Western Blots with anti-PDE12 antibody (Abcam ab87738), anti-AKAP7 (Proteintech: Cat#12591-1-AP) antibody or monoclonal antibody against human RNase L [13].
as §2

RNase L KO A549 cells [9] = assay: PARP cleavage, Western blot; type: cell-based, human; conditions: 50 uM AZA for 48 hours
Experimental: (§5) PARP cleavage was monitored in Western blots probed with [anti PAPR1 (rabbit polyclonal) (Santa Cruz Biotechnology)]. β-actin levels were monitored with 3-actin (mouse monoclonal) antibody (Sigma-Aldrich) to evaluated as a control.
(§6) Prior to lysis, cells were washed twice in cold phosphate-buffered saline (PBS). Cell extracts were prepared with lysis buffer supplemented with phosphatase/protease inhibitors followed by incubation on ice for 20 min. Lysates were subjected to centrifugation at 12,000 g for 10 min, and the supernatants collected and protein quantified by Bradford assays (BioRaD). Cell lysates ([…]) were separated on 8% or 10% SDS PAGE gels and proteins were transferred to polyvinylidene difluoride membranes (0.45 μm) (BioRaD) and probed with antibodies according to the different manufacturers' recommendations.

WT A549 cells [10] = assay: PARP cleavage, Western blot; type: cell-based, human; conditions: 50 uM AZA for 48 hours
Experimental: as §5, §6

[11] = system: MAVS-ADAR1-RNase L TKO A549 cells; assay: Cell survival, IncuCyte; type: cell-based, human; conditions: 50 μM AZA (FIG. 19)
Experimental: (§7) In FIG. 19 WT, RNase L-ADAR1 DKO, MAVS-ADAR1 DKO, MAVS-ADAR1-RNase L TKO and p150 ADAR1 isoform KO A549 cells were incubated without AZA (panel A) or with […] AZA (panels B and C). Percent survival after […] AZA treatment was calculated using an IncuCyte system. The data are average=±SD from three independent replicates. Similar data were obtained from two additional independent experiments.
as §2

[12] = system: MAVS-ADAR1 DKO A549 cells; assay: Cell survival, IncuCyte; type: cell-based, human; conditions: 50 mM AZA (FIG. 19), compared with WT cells
Experimental: as §7, §2

[13] = system: RNase L-ADAR1 DKO A549 cells; assay: Cell survival, IncuCyte; type: cell-based, human; conditions: 50 mM AZA (FIG. 19)
Experimental: as §7, §2

ADAR1 p150 KO A549 cells = assay: Cell survival, IncuCyte; type: cell-based, human; parameters: dose or concentration left out as unconfirmed; conditions: AZA (FIG. 19C)
Experimental: as §2

[14] = system: MAVS-RNase L DKO A549 cells; assay: Cell death assay, IncuCyte real-time imaging; type: cell-based, human; conditions: concentrations up to 100 uM
Experimental: as §2, with “SytoTM” for “Syto™”, “[…])” for “2015A)”

MAVS KO A549 cells [15] = assay: Cell death assay, IncuCyte real-time imaging; type: cell-based, human; conditions: different doses of AZA, compared with WT
Experimental: as §2, with “SytoTM” for “Syto™”, “[…])” for “2015A)”

[16] = system: bronchial epithelial cells BETA; assay: Cell death assay, IncuCyte live-cell imaging; type: cell-based, human; conditions: FIG. 7
Experimental: as §3, §2

[17] = system: bronchial epithelium BEAS 2B cells; assay: Cell death assay, IncuCyte live-cell imaging; type: cell-based, human; conditions: FIG. 7
Experimental: as §3, §2

[18] = system: primary alveolar epithelial cells HAEC; assay: Cell death assay, IncuCyte live-cell imaging; type: cell-based, human; conditions: FIG. 7
Experimental: as §3, §2

[19] = system: MAVS/RNase L DKO A549 cells; assay: Apoptosis assay (caspase 3/7), IncuCyte; type: cell-based, human; conditions: 50 uM AZA
Experimental: (§8) Cells were seeded in 96-well plates and treated with Aza as above. The cells were incubated with IncuCyte™ Kinetic Caspase-3/7 Apoptosis Assay Reagent (green) according to manufacturer's protocol and with 250 nM of Syto Red dye (ThermoFisher) for 24 hours. The apoptotic index was determined by determining the total count [green Integrated Intensity (GCU×μm^2/Image)] and then normalizing by count confluence (percent) using IncuCyte software.

RNase L KO A549 cells [20] = assay: Apoptosis assay (caspase 3/7), IncuCyte; type: cell-based, human; conditions: 50 uM AZA
Experimental: as §8

WT A549 cells [21] = assay: Apoptosis assay (caspase 3/7), IncuCyte; type: cell-based, human
Experimental: as §8

MAVS KO A549 cells [22] = assay: Apoptosis assay (caspase 3/7), IncuCyte; type: cell-based, human; conditions: 50 uM AZA, compared with WT
Experimental: as §8

[23] = system: OAS (1, 2, 3) triple KO HME cells; assay: Cell death assay, IncuCyte; type: cell-based, human; conditions: AZA 50 μM, compared with WT HME
Experimental: as §1, §2

Nc1ncn([C@@H]2O[C@H](CO)[C@@H](O)[C@H]2O)c(=O)n1 [AZA, 5-azacytidine]
sensitivity to AZA treatment [1]: did not | sensitivity to AZA treatment [2]: sensitized cells to AZA treatment | induction of cell death by AZA [3]: sensitive | induction of cell death by AZA [4]: relatively resistant | induction of cell death by AZA [5]: sensitive | cell survival (PDE12 KO A549 cells): 37% | cell survival [6]: 17% | cell survival (AKAP7 KO A549 cells): 56% | cell death (WT A549 cells [7]; 50 uM AZA, by 60 hours of treatment): 85% | cell survival (WT A549 cells [7]; AZA 25 uM by itself): 57% | AZA sensitivity (WT A549 cells [7]; FIG. 7, compared with normal lung epithelia): highly sensitive | cytotoxicity of AZA with ionizing radiation (WT A549 cells [7]; IR 10 Gy for 10 min, then AZA 25 μM or 12.5 μM for 50 hr): potentiates the cytotoxicity of AZA | cell death (RNase L KO A549 cells [8]; 50 uM AZA): 9% | cell death (RNase L KO A549 cells [8]; 100 uM AZA): 17% | sensitivity to treatment (cell survival) (RNase L KO A549 cells [8]; AZA 25 uM, 2-5A 1 uM transfected, or both): completely resistant | AZA sensitivity (RNase L KO A549 cells [8]; AZA (FIG. 19)): AZA resistant | PARP cleavage (RNase L KO A549 cells [9]): only a slight increase | cleaved PARP (WT A549 cells [10]): large increase in cleaved PARP | AZA sensitivity [11]: AZA resistant | AZA sensitivity [12]: enhanced AZA sensitivity | AZA sensitivity [13]: AZA resistant | cytotoxic effect of AZA (ADAR1 p150 KO A549 cells): highly sensitive | sensitivity to AZA treatment [14]: almost completely resistant | sensitivity to AZA treatment (MAVS KO A549 cells [15]): slightly less sensitive | AZA sensitivity [16]: resistant | AZA sensitivity [17]: resistant | AZA sensitivity [18]: resistant | caspase3/7 activation [19]: highly resistant | caspase3/7 activation (RNase L KO A549 cells [20]): resistant | caspase3/7 activation (WT A549 cells [21]; 50 uM AZA): high levels of caspase3/7 activation | caspase3/7 activation (MAVS KO A549 cells [22]): at best only a small effect in reducing caspase3/7 activation | sensitivity to AZA [23]: relatively resistant

Nc1ncn([C@H]2C[C@H](O)[C@@H](CO)O2)c(=O)n1 [DAC, 5-aza-2′-deoxycytidine]
cell survival (WT A549 cells [7]; 25 uM DAC, up to 70 hrs): 56% | cell survival (WT A549 cells [7]; 50 uM DAC, up to 70 hrs): 47% | sensitivity to DAC relative to AZA (WT A549 cells [7]; up to 70 hrs): less sensitive | effect on survival (RNase L KO A549 cells [8]; DAC, up to 70 hrs): no effect

CC(NC(=O)C(NC(=O)OCc1ccccc1)C(C)C)C(=O)NC(CC(=O)O)C(=O)CF (stereo not drawn) [Z-VAD] (Cbz-Val-Ala-Asp-CH2F; configuration not given here)
effect on caspase3/7 activation by AZA (WT A549 cells [21]; 50 uM Z-VAD in presence of 50 uM AZA): greatly suppressed caspase3/7 activation
